Values of other authors as cited in EP0266549A1, “Cinnamyl amines, process for their preparation and pharmaceutical compositions containing them” (BOEHRINGER MANNHEIM ITALIA S.P.A., priority 1986, dated 1988).
Structures can show the parent of a compound that is named as a salt.

Conditions: in vitro; Arch. lnt. Pharmacology, 272, 283, 1984; cited from earlier work

SMILES: Fc1ccc(C(c2ccc(F)cc2)N2CCN(C/C=C/c3ccccc3)CC2)cc1 [Flunarizine HCl]
- activity as "radical scavenger": very active
